US20100047314A1 (OsteoGeneX Inc., priority 2008, published 2010)

Legend:
male C57BL/6 mice [1] = assay: Trabecular bone volume by micro-CT analysis on proximal tibia and lumbar L5; assay type: in vivo, mouse
Experimental: (§1) Four month old male C57BL/6 mice were treated daily with saline vehicle or the sclerostin inhibitor of calcium folinate at 10-100 mg/kg (via i.p) for 30 days. Study endpoints included a biochemical marker of bone formation; osteocalcin, measured by EIA Elisa, and measurement of trabecular bone volume by mico-CT analysis on the proximal tibia and Lumbar L5.

male C57BL/6 mice [2] = assay: Serum osteocalcin bone formation marker by EIA Elisa in mice treated 30 days; assay type: in vivo, mouse; settings: 100 mg/kg i.p. daily for 30 days, four month old male C57BL/6 mice
Experimental: as §1

Wnt pathway = assay: Modulation of the Wnt pathway (FIG. 1); settings: doses of 2.5 ng (low), 60 ng (medium), 125 ng (high) and 1250 ng (very high)
Excerpt: (§2) Compounds useful in the methods of the present invention can be identified via a variety of methods known to one of skill in the art. Several exemplary methods for identifying such antagonists are described herein, including cell-based and in vitro techniques (Journal of Bone and Mineral Research 2006, 21(11), 1738-1749). A general method of identifying SOST antagonists involves evaluating the effects of antagonist candidates on bone formation under controlled conditions. Preferably bone formation is determined using micro-CT techniques on live animals. Preferred animals include rodents, more preferred are primates. Femur, tibia and vertebrae bones are particularly useful subjects for such study.

mouse = assay: Mouse bone formation assay of SOST antagonist candidates, examined by micro-CT; assay type: in vivo; settings: versus control solution
Excerpt: as §2
Briefly, the test animal is treated with a predetermined dose of a SOST antagonist candidate. […]
Once the dosing schedule has been completed, both test and control animals are examined to determine the quantity of bone formation present. […] Where necessary, levels of bone formation can be calculated by determining the volume of bone formation present in each animal. […]
For example, the mouse test animal is treated with a predetermined dose of a SOST antagonist candidate for a complete dosing schedule. […] Once the dosing schedule has been completed, both test and control animals are examined with sacrifice using micro-CT to determine the quantity of bone formation present.

Nc1nc(=O)c2c([nH]1)NCC(CNc1ccc(C(=O)N[C@@H](CCC(=O)[O-])C(=O)[O-])cc1)N2C=O.[Ca+2] (some centres unmarked) [calcium folinate]
increase in bone volume for the tibia over baseline controls (male C57BL/6 mice [1]; 10 mg/kg i.p. daily for 30 days, proximal tibia, micro-CT): greater than 37%
increase in bone volume for lumbar L5 over controls (male C57BL/6 mice [1]; 100 mg/kg i.p. daily for 30 days, lumbar L5, micro-CT): 51%
percent increase in serum osteocalcin bone formation marker over saline controls (male C57BL/6 mice [2]): 41%

Nc1nc(=O)c2c([nH]1)NCC(CNc1ccc(C(=O)NC(CCC(=O)O)C(=O)O)cc1)N2C=O (centres unmarked) [folinic acid]
modulation of the Wnt pathway to promote bone growth (Wnt pathway): modulating the Wnt pathway to promote bone growth
quantity of bone formation (promotion of bone growth) (mouse): promoting bone growth
